This is an account of results in patent publication US9828350B2, “5,6-dihydro-2H-[1,4]oxazin-3-yl-amine derivatives useful as inhibitors of beta-secretase (BACE)” (Janssen Pharmaceutica NV, priority 2010, dated 2017).

Structures are written as SMILES.

Assay [1] has as its target recombinant BACE1 protein (Homo sapiens, UniProt P56817). The assay can be described thus: Biochemical FRET based assay. The conditions noted are these: recombinant BACE1 1 μg/ml, 120 minutes at room temperature, pH 5.0; read-out: Biochemical FRET based assay pIC50 (converted). Put shortly: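 Proteolysis was read as the rise in donor fluorescence (320 nm excitation, 405 nm emission) from T0 to T120, expressed in RFU. The reaction ran 120 minutes at room temperature at pH 5.0 in citrate buffer with 4% DMSO, using […] quenched Swedish APP peptide and 1 μg/ml BACE1.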

The next assay concerns Abeta total. As to the kind of experiment: Cellular αLisa assay in SKNBE2 cells, Abeta total. Format: cell-based, human. The note with it: incubated for 18 hours; for IC50: Homo sapiens, SKNBE2, 18 h, read-out: Cellular αLisa assay in SKNBE2 cells Abetatotal pIC50 (converted). In a few lines:
(§1)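 Secreted Abeta levels were measured by sandwich αLisa, pairing biotin-AbN/25 donor beads with Ab4G8 acceptor beads for total Abeta or cAb42/26 for Abeta 1-42, read at 615 nm after 650 nm excitation following 1 hour. Cells were SKNBE2 expressing wild-type hAPP695, exposed to compound for 18 hours.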

In the next assay the test system is Abeta 1-42. The assay can be described thus: Cellular αLisa assay in SKNBE2 cells, Abeta 1-42. Format: cell-based, human. The note with it: incubated for 18 hours; for IC50: Homo sapiens, SKNBE2, 18 h, read-out: Cellular αLisa assay in SKNBE2 cells Abeta 42 pIC50 (converted). In a few lines: as §1

recombinant BACE1 protein, sequence (P56817 46-501): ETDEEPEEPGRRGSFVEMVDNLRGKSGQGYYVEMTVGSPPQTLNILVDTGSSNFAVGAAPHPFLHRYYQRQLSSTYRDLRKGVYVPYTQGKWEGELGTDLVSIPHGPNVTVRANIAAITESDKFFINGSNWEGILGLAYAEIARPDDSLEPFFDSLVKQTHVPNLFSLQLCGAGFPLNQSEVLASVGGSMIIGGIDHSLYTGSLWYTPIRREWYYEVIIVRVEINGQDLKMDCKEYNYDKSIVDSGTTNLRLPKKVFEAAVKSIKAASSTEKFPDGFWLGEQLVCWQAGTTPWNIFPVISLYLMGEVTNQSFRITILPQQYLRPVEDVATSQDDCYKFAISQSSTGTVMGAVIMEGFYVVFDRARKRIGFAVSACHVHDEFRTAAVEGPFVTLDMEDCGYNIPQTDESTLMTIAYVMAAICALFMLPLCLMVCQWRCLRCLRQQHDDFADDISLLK

In the case of `COc1ccc(C(=O)Nc2ccc(F)c([C@@]3(C4CC4)N=C(N)CO[C@H]3C(F)(F)F)c2)nc1` [Compound 231], the IC50 in assay [1] is 0.0339 µM; in the assay on Abeta total, 0.0117 µM; in the assay on Abeta 1-42 it was 0.0123 µM.
In the same order, the values of `NC1=N[C@@](c2cc(NC(=O)c3ccc(Cl)cn3)ccc2F)(C2CC2)[C@H](C(F)(F)F)OC1` [Compound 233] are 0.0316 µM, 0.0129 µM and 0.012 µM.
In the same order, the values of `NC1=N[C@@](c2cc(NC(=O)c3ncc(Cl)cc3Cl)ccc2F)(C2CC2)[C@H](C(F)(F)F)OC1` [Compound 234] are 0.0251 µM, 0.0102 µM and 0.0115 µM.
In the same order, the values of `N#Cc1cnc(C(=O)Nc2ccc(F)c([C@@]3(C4CC4)N=C(N)CO[C@H]3C(F)(F)F)c2)c(Cl)c1` [Compound 235] are 0.0331 µM, 0.0141 µM and 0.0145 µM.
As for `CC1(c2cc(-c3cncc(C#N)c3)ccc2F)N=C(N)COC1C(F)(F)F` (stereo not drawn) [Compound 239], the figures for the IC50 (in assay [1]; in the assay on Abeta total; with Abeta 1-42) were 1.05 µM, 0.224 µM and 0.224 µM, respectively.
As to `C[C@]1(c2cccc(NC(=O)c3ccc(C#N)cn3)c2)N=C(N)CO[C@]1(F)C(F)(F)F` [Compound 240], the IC50 in assay [1] was 0.0257 µM; with Abeta total, 0.0102 µM; in the assay on Abeta 1-42, 0.0105 µM.
The matching figures for `C[C@]1(c2cccc(NC(=O)c3ccc(C#N)cn3)c2)N=C(N)CO[C@@]1(F)C(F)(F)F` [Compound 241]: 0.324 µM, 0.12 µM and 0.126 µM.
The matching figures for `C[C@]1(c2cccc(NC(=O)c3ncc(Cl)cc3Cl)c2)N=C(N)CO[C@]1(F)C(F)(F)F` [Compound 242]: 0.0204 µM, 0.0123 µM and 0.0123 µM.
Consider `C[C@]1(c2cccc(NC(=O)c3ncc(Cl)cc3Cl)c2)N=C(N)CO[C@@]1(F)C(F)(F)F` [Compound 243], for which the IC50 in assay [1] is 0.263 µM; in the assay on Abeta total, 0.263 µM; in the assay with Abeta 1-42 it was 0.24 µM.
For `C[C@]1(c2cccc(NC(=O)c3ncc(C#N)cc3Cl)c2)N=C(N)CO[C@]1(F)C(F)(F)F` [Compound 245], the IC50 was 0.0219 µM in assay [1], 0.00589 µM in the assay on Abeta total and 0.00661 µM in the assay on Abeta 1-42.
The matching figures for `C[C@]1(c2cccc(NC(=O)c3ncc(C#N)cc3Cl)c2)N=C(N)CO[C@@]1(F)C(F)(F)F` [Compound 246]: 0.316 µM, 0.102 µM and 0.12 µM.
Take `NC1=N[C@@](c2cccc(NC(=O)c3ncc(Cl)cc3F)c2)(C2CC2)[C@H](F)OC1` [Compound 249, (2S,3R)—N-[3-(5-amino-3-cyclopropyl-2-fluoro-3,6-dihydro-2H-1,4-oxazin-3-yl)phenyl]-5-chloro-3-fluoropyridine-2-carboxamide]: the IC50 in assay [1] was 0.219 µM; in the assay with Abeta total it was 0.0813 µM; in the assay with Abeta 1-42, 0.0891 µM.
The matching figures for `NC1=N[C@@](c2cccc(NC(=O)c3ncc(Cl)cc3F)c2)(C2CC2)[C@@H](F)OC1` [Compound 250, (2R,3R)—N-[3-(5-amino-3-cyclopropyl-2-fluoro-3,6-dihydro-2H-1,4-oxazin-3-yl)phenyl]-5-chloro-3-fluoropyridine-2-carboxamide]: 0.0603 µM, 0.0398 µM and 0.0437 µM.
In the same order, the values of `N#Cc1ccc(C(=O)Nc2cccc([C@@]3(C4CC4)N=C(N)CO[C@@H]3F)c2)nc1` [Compound 251] are 0.049 µM, 0.038 µM and 0.0417 µM.
In the same order, the values of `N#Cc1cncc(-c2cccc([C@@]3(C4CC4)N=C(N)CO[C@H]3C(F)(F)F)c2)c1` [Compound 253, (5R,6R)-5-{3-[5-amino-3-cyclopropyl-2-(trifluoromethyl)-3,6-dihydro-2H-1,4-oxazin-3-yl]phenyl}pyridine-3-carbonitrile] are 0.155 µM, 0.0501 µM and 0.049 µM.
Turning to `NC1=N[C@@](c2cccc(NC(=O)c3ncc(Cl)cc3Cl)c2)(C2CC2)[C@@H](F)OC1` [Compound 256], the values for the IC50 (in assay [1]; with Abeta total; with Abeta 1-42) were 0.0427 µM, 0.0263 µM and 0.0288 µM, respectively.
As to `NC1=N[C@@](c2cccc(-c3cncnc3)c2)(C2CC2)[C@@H](F)OC1` [Compound 257], the IC50 in assay [1] is 0.891 µM; with Abeta total, 0.977 µM; in the assay with Abeta 1-42 it was 1.02 µM.
In the same order, the values of `NC1=N[C@@](c2cc(NC(=O)c3ncc(Cl)cc3Cl)ccc2F)(C2CC2)[C@@H](F)OC1` [Compound 259] are 0.0851 µM, 0.126 µM and 0.135 µM.
In the same order, the values of `C[C@]1(c2cc(NC(=O)c3ncc(Cl)cc3F)ccc2F)N=C(N)CO[C@H]1C(F)(F)F` [Compound 260] are 0.0479 µM, 0.00646 µM and 0.00661 µM.
In the same order, the values of `N#Cc1ccc(C(=O)Nc2ccc(F)c([C@@]3(C4CC4)N=C(N)CO[C@@]3(F)C(F)(F)F)c2)nc1` [Compound 262] are 0.0302 µM, 0.0741 µM and 0.0692 µM.
As to `NC1=N[C@@](c2cc(NC(=O)c3cnc(OCC(F)(F)F)cn3)ccc2F)(C2CC2)[C@@H](F)OC1` [Compound 264], the IC50 in assay [1] was 0.0912 µM; with Abeta total it was 0.316 µM; with Abeta 1-42, 0.347 µM.
The matching figures for `NC1=N[C@@](c2cccc(-c3cncnc3)c2)(C2CC2)[C@H](C(F)(F)F)OC1` [Compound 269]: 0.158 µM, 0.0575 µM and 0.0589 µM.
The matching figures for `NC1=N[C@@](c2cccc(-c3cncc(F)c3)c2)(C2CC2)[C@H](C(F)(F)F)OC1` [Compound 270]: 0.132 µM, 0.0479 µM and 0.0468 µM.
In the same order, the values of `N#Cc1cncc(-c2ccc(F)c([C@@]3(C4CC4)N=C(N)CO[C@@]3(F)C(F)(F)F)c2)c1` [Compound 271] are more than 30.2 µM, more than 10 µM and more than 10 µM.
In the case of `Cc1cc(Br)cnc1C(=O)Nc1cccc([C@@]2(C3CC3)N=C(N)CO[C@H]2F)c1` [Compound 272], the IC50 was 0.0912 µM in assay [1], 0.0355 µM in the assay on Abeta total and 0.0363 µM in the assay with Abeta 1-42.
The matching figures for `NC1=N[C@@](c2cccc(NC(=O)c3cnc(OCC(F)(F)F)cn3)c2)(C2CC2)[C@H](F)OC1` [Compound 274]: 0.263 µM, 0.12 µM and 0.12 µM.
In the same order, the values of `NC1=N[C@@](c2cccc(NC(=O)c3cnc(OCC(F)(F)F)cn3)c2)(C2CC2)[C@@H](F)OC1` [Compound 275] are 0.0617 µM, 0.0562 µM and 0.0589 µM.
In the same order, the values of `NC1=N[C@@](c2cccc(NC(=O)c3ncc(Cl)cc3Cl)c2)(C2CC2)[C@H](F)OC1` [Compound 276] are 0.174 µM, 0.0417 µM and 0.0417 µM.
Take `N#Cc1ccc(C(=O)Nc2cccc([C@@]3(C4CC4)N=C(N)CO[C@H]3F)c2)nc1` [Compound 280]: the IC50 in assay [1] is 0.182 µM; in the assay on Abeta total, 0.0575 µM; in the assay with Abeta 1-42, 0.0589 µM.
For `CCC1(c2cc(NC(=O)c3cnc(OC)cn3)ccc2F)N=C(N)COC1F` (stereo not drawn) [Compound 281], in assay [1], the IC50 was 0.0741 µM. Moreover, in the assay with Abeta total, the “Cellular αLisa assay in SKNBE2 cells Abetatotal pIC50” value is on record as 7.34. For the same molecule, the “Cellular αLisa assay in SKNBE2 cells Abeta 42 pIC50” value with Abeta 1-42 turned out to be 7.3.
In the same order, the values of `CCC1(c2cc(NC(=O)c3cnc(OC)cn3)ccc2F)N=C(N)COC1F` (stereo not drawn) [Compound 282] are 0.891 µM, 6.65 and 6.56.
As to `CCC1(c2cc(NC(=O)c3ncc(Cl)cc3F)ccc2F)N=C(N)COC1F` (stereo not drawn) [Compound 283], the IC50 is 0.0676 µM in assay [1], 0.0245 µM with Abeta total and 0.0302 µM with Abeta 1-42.
The matching figures for `CCC1(c2cc(NC(=O)c3ncc(C#N)cc3Cl)ccc2F)N=C(N)COC1C(F)(F)F` (stereo not drawn) [Compound 284]: 0.0871 µM, 0.0174 µM and 0.0178 µM.
In the same order, the values of `CCC1(c2cc(NC(=O)c3cnc(OC)cn3)ccc2F)N=C(N)COC1C(F)(F)F` (stereo not drawn) [Compound 285] are 0.1 µM, 0.0158 µM and 0.0148 µM.
In the case of `NC1=N[C@@](c2cccc(-c3cncnc3)c2)(C2CC2)[C@@H](C(F)(F)F)OC1` [Compound 286], the values for the IC50 (in assay [1]; in the assay on Abeta total; with Abeta 1-42) were 0.851 µM, 0.155 µM and 0.158 µM, respectively.
In the same order, the values of `NC1=N[C@@](c2cccc(NC(=O)c3ncc(Cl)cc3F)c2)(C2CC2)[C@@H](C(F)(F)F)OC1` [Compound 287] are 0.138 µM, 0.0275 µM and 0.0324 µM.
Consider `NC1=N[C@@](c2cccc(NC(=O)c3ncc(Cl)cc3F)c2)(C2CC2)[C@H](C(F)(F)F)OC1` [Compound 288], for which the figures for the IC50 (in assay [1]; with Abeta total; in the assay with Abeta 1-42) were 0.0331 µM, 0.00741 µM and 0.00776 µM, respectively.
The matching figures for `NC1=N[C@@](c2cccc(NC(=O)c3cnc(OCC(F)(F)F)cn3)c2)(C2CC2)[C@H](C(F)(F)F)OC1` [Compound 289]: 0.0309 µM, 0.0105 µM and 0.01 µM.
